# How the values were obtained:
# [1] = target: T1, ovalbumin (Gallus gallus, UniProt P01012); experiment: Protein score from in-solution tryptic digestion of ovalbumin (MALDI-TOF MS/MS, Mascot); settings: tryptic digestion of 250 μmol ovalbumin; 0.05% AALS-6, other surfactants per manufacturer's protocols; FIG. 3
# T1 sequence (P01012 1-386): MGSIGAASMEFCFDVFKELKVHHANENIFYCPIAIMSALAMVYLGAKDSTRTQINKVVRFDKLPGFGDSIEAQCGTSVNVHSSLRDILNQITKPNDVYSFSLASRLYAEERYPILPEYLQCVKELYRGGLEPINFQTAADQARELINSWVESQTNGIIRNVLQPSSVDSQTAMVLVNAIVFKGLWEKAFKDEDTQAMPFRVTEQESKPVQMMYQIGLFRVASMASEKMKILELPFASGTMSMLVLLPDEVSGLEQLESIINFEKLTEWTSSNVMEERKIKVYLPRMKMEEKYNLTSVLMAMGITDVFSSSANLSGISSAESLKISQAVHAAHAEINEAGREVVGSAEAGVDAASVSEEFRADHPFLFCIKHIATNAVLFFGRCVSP
# Experimental: The protein scores from in-solution digestion of ovalbumin in buffers containing an embodiment of an anionic acid-labile surfactant (“AALS-6”) and three commercially available acid labile surfactants are illustrated in FIG. 3. A tryptic digestion of […] ovalbumin was performed using 0.05% AALS-6 in digestion buffer. For the other surfactants, digestion was performed according to the manufacturer's protocols. Sample clean-up and MALDI spotting was performed using C18 reversed phase tips. MALDI-TOF MS and MS/MS spectra were acquired using an ABI 4800 mass spectrometer in the reflector mode. Protein identification was accomplished through database searching MS/MS spectra using Mascot search engine.
# The ovalbumin control digestion score is 347. In general, the higher protein score indicates an increase in the quality and/or completeness of the digestion because more peptides are available for analysis by the mass spectrometer, and/or the quality of the digested sample delivered to the mass spectrometer is increased. […] The higher protein score of AALS-6 may also be due to its degradation kinetics. For example, once the digestion experiment is complete, the degradation of the surfactant reduces contamination of the signal by detergent molecules and by-products as well as reduces the ion suppression effects commonly seen in mass spectrometry analysis of peptides and proteins.
# [2] = target: BSA (Bos taurus, UniProt P02769); experiment: Protein score from in-solution tryptic digestion of BSA (MALDI-TOF, peptide mass fingerprinting); settings: tryptic digestion of 250 pmol BSA, 0.05% AALS-6 in digestion buffer; FIG. 2
# Experimental: Protein scores from in-solution digestion of BSA in buffers containing an embodiment of an anionic acid-labile surfactant (“AALS-6”) and three commercially available acid labile surfactants are illustrated in FIG. 2. A tryptic digestion of 250 pmol BSA is performed using 0.05% AALS-6 in digestion buffer. For the other surfactants, digestion is performed according to the manufacturer's protocols. Sample clean-up and MALDI spotting is performed using C18 reversed phase tips. MALDI-TOF spectra are acquired using an ABI 4800 mass spectrometer in the reflector mode. Protein identification is accomplished through peptide mass fingerprinting (PMF) of the acquired MS spectra.
# Algorithms that compare mass spectrometric data to database for protein identification compare the experimental tandem mass spectra against theoretical mass spectra from all peptides and proteins present in the databases. As an output for the database correlation analysis, a protein identification score is generated for each potential protein match. Protein matches are required to have a minimum protein score to be considered a potential positive and significant protein identification. The higher the score, the more likely that the protein identification is real and not a result of random events that match the database. […]
# [3] = Critical micellular concentration; format: physicochemical
# Chain of BSA (P02769 25-607): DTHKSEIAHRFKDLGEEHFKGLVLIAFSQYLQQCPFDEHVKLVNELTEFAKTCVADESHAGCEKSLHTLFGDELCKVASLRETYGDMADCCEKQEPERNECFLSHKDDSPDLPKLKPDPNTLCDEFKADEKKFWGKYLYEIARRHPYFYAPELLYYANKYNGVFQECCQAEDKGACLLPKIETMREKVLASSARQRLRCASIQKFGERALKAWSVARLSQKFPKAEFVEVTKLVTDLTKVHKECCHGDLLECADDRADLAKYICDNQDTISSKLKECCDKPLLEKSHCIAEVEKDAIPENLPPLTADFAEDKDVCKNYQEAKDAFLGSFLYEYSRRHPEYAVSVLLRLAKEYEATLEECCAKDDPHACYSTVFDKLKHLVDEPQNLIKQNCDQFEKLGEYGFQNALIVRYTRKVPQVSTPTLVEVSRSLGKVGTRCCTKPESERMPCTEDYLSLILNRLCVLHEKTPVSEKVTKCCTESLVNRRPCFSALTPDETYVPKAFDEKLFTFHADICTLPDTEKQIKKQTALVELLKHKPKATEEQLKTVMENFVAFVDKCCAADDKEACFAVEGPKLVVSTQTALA
average protein score [1],average protein score [2],critical micellular concentration [3],Structure (SMILES)
487,93,7.7 mM,"CCCCCCOC(C)(COS(=O)(=O)[O-])OCCCCCC.[Na+] [AALS-6, sodium 2,2-bis(hexyloxy)propyl sulfate]"
329,,,CCCCCCCCCCC(OC(=O)NCCCS(=O)(=O)[O-])c1ccco1.[Na+] (centres unmarked) [Proteamax]
341,,,CCCCCCCCCCCC1(C)OCC(COCCCS(=O)(=O)[O-])O1.[Na+] (centres unmarked) [Rapigest]

# Reference: patent publication US8435756B2, “Anionic acid-labile surfactants and methods of use” (Protea Biosciences, Inc., priority 2008, dated 2013)
